Where two headings read alike, the source gives them in different places.
Target: T1, GLP-1R (Homo sapiens, UniProt P43220)
T1 construct: host or cells: GLP-1R CRE-bla CHO-K1 cells
Experiment: EC20 GLP-1(9-36) PAM cAMP assay: dose response of compound in the presence of fixed concentration of GLP-1(9-36)
Assay type: cell-based
Settings: GLP-1R CRE-bla CHO-K1 cells, read-out: EC20 GLP-1(9-36) PAM EC50
Summary of the method: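 Positive allosteric modulation read as cAMP accumulation: compound titrations (12 points) combined with an EC20 level of GLP-1(9-36) on CHO-K1 GLP-1R CRE-bla cells, IBMX present, 30 min, 37 °C, pH 7.4 buffer. Luminescence converted to cAMP via standards; non-linear fit gave EC50 and Emax.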

[1] = dose response of compound in presence of fixed concentration of GLP-1(9-36)
[2] = compound dose response with fixed concentration of GLP-1(9-36)

T1 sequence (P43220 24-463): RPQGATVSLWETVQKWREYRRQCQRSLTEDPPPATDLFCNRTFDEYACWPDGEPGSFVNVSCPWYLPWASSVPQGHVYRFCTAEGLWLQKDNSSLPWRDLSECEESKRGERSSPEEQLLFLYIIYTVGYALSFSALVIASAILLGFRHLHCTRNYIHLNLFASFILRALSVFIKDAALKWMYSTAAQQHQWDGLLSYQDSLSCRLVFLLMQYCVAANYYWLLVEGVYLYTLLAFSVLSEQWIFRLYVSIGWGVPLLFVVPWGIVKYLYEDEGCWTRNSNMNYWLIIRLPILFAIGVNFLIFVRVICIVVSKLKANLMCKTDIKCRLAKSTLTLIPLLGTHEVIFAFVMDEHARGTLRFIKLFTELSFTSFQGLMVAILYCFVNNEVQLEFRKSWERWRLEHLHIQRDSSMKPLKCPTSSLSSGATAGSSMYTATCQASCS
T1 sequence (P01275 100-127 partner limits assumed): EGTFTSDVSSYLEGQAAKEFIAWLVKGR

Row | Compound | EC50 [1] [µM] | EC50 [2] [µM]
1 | C[C@@H](NC(=O)[C@H](Cc1ccc(-c2ncc(-c3ccc(Cl)cc3)cn2)cc1)NC(=O)c1ccc(C(C)(C)C)s1)C(=O)O [Compound 1029] | 2.5 to 5 | 
2 | CCCc1ccc(-c2ccc(-c3cnc(-c4ccc(C[C@H](NC(=O)c5ccc(S(C)(=O)=O)cc5)C(=O)N5CC(C(=O)O)C5)cc4)nc3)c(F)c2)cc1 [Compound 1404] |  | < 0.8
3 | CCC[C@H]1CC[C@H](C2CCN(c3cnc(-c4ccc(C[C@H](NC(=O)c5ccc(C(C)(C)C)s5)C(=O)N5CC[C@H](C(=O)O)C5)cc4)nc3)CC2)CC1 [Compound 1416] |  | < 0.8
4 | C[C@@H](NC(=O)[C@H](Cc1ccc(-c2ncc(-c3ccc(-c4ccnn4C)cc3)cn2)cc1)NC(=O)c1ccc(C(C)(C)C)s1)C(=O)O [Compound 1297] |  | 2.5 to 5
5 | CCCCCCCOc1ccc(-c2cnc(-c3ccc(C[C@H](NC(=O)c4ccc(Cc5ccccc5)cc4)C(=O)N[C@H](C)C(=O)O)cc3)nc2)cc1 [Compound 825] | < 0.8 | 
6 | CCCCC1CCN(C2CCN(c3cnc(-c4ccc(C[C@H](NC(=O)c5ccc(C(C)(C)C)s5)C(=O)N5CC(C(=O)O)C5)cc4)nc3)CC2)C(=O)C1 (some centres unmarked) [Compound 1506] |  | 5 to 10
7 | CC(C)(C)c1ccc(C(=O)N[C@@H](Cc2ccc(-c3ncc(-c4ccc(C5CCCCC5)cc4)cn3)cc2)C(=O)O)s1 [Compound 1345] |  | 0.8 to 2.5
8 | CCCCCCCOc1ccc(-c2cnc(-c3ccc(C[C@H](NC(=O)c4ccc(C(C)(C)C)s4)C(=O)N[C@@H](CC(=O)NCCO)C(=O)O)cc3)nc2)cc1 [Compound 521] | < 0.8 | 
9 | CC[C@H]1CC[C@H](c2ccc(-c3cnc(-c4ccc(C[C@H](NC(=O)c5ccc(C(C)(C)C)s5)C(=O)O)cc4)nc3)cc2)CC1 [Compound 1058, (S)-2-(5-(tert-butyl)thiophene-2-carboxamido)-3-(4-(5-(4-((1r,4r)-4-ethylcyclohexyl)phenyl)pyrimidin-2-yl)phenyl)propanoic acid] | < 0.8 | 
10 | CCCCCOc1ccc(-c2cnc(-c3ccc(C[C@H](NC(=O)c4ccc(C(C)(C)C)s4)C(=O)N4CC[C@H](C(=O)O)C4)cc3)nc2)cc1 [Compound 762] | 5 to 10 | 
11 | CCCCCCCOc1ccc(-c2cnc(-c3ccc(C[C@H](NC(=O)c4ccc(C(C)(C)C)s4)C(=O)N[C@H]4C[C@H](C(=O)O)C4)cc3)nc2)cc1 [Compound 875] | 0.8 to 2.5 | 
12 | CC(C)(C)c1ccc(C(=O)N[C@@H](Cc2ccc(-c3ncc(-c4ccc(OC5CCCC5)cc4)cn3)cc2)C(=O)N2CC(C(=O)O)C2)s1 [Compound 779] | 0.8 to 2.5 | 
13 | CCCc1ccc(-c2ccc(-c3cnc(-c4ccc(C[C@H](NC(=O)c5ccc(C(F)(F)F)cc5)C(=O)N5CC(C(=O)O)C5)cc4)nc3)c(F)c2)cc1 [Compound 1400] |  | < 0.8
14 | CC(C)(C)c1ccc(C(=O)N[C@@H](Cc2ccc(-c3ncc(-c4ccc(-c5cccc(C(F)(F)F)c5)cc4)cn3)cc2)C(=O)O)s1 [Compound 1347] |  | < 0.8
15 | CCCCCCCOc1ccc(-c2cnc(-c3ccc(C[C@H](NC(=O)c4ccc(C(C)(C)C)cc4)C(=O)NC(C(=O)O)C(O)c4ccccc4)cc3)nc2)cc1 (some centres unmarked) [Compound 570] | < 0.8 | 
16 | CCCc1ccc(C2CCN(c3cnc(-c4ccc(C[C@H](NC(=O)c5ccc(C(C)(C)C)s5)C(=O)N5CC(C(=O)O)C5)cc4)nc3)CC2)nn1 [Compound 1501] |  | 5 to 10
17 | CCCCCCCOc1ccc(-c2cnc(-c3ccc(C[C@H](NC(=O)c4sc(C(C)(C)C)cc4C)C(=O)N4CC[C@H](C(=O)O)C4)cc3)nc2)cc1 [Compound 866] | 2.5 to 5 | 
18 | CCCCCCCOc1ccc(-c2cnc(-c3ccc(C[C@H](NC(=O)c4ccc(CCC)s4)C(=O)N4CC(C(=O)O)C4)cc3)nc2)cc1 [Compound 1107] | 0.8 to 2.5 | 
19 | CC(C)(C)c1ccc(C(=O)N[C@@H](Cc2ccc(-c3ncc(-c4ccc(-c5ccc(C(F)(F)F)cc5)cc4F)cn3)cc2)C(=O)N2CC(C(=O)O)C2)s1 [Compound 1218] |  | < 0.8
20 | CCCCCCCOc1ccc(-c2cnc(-c3ccc(C[C@H](NC(=O)c4ccc(C5(C)CC5)cc4)C(=O)N4CCC[C@H]4C(=O)O)cc3)nc2)cc1 [Compound 1083] | 0.8 to 2.5 | 
21 | CCCCCCCOc1ccc(-c2cnc(-c3ccc(C[C@H](NC(=O)c4ccc(C(C)(C)C)s4)C(=O)N[C@H](CCN)C(=O)O)cc3)nc2)cc1 [Compound 411] | 0.8 to 2.5 | 
22 | CC(C)(C)c1ccc(C(=O)N[C@@H](Cc2ccc(-c3ncc(-c4ccc(OCCC5CCCCC5)cc4)cn3)cc2)C(=O)N2CC(C(=O)O)C2)s1 [Compound 945] | < 0.8 | 
23 | CC(C)(C)c1ccc(C(=O)N[C@@H](Cc2ccc(-c3ncc(-c4ccc(OCC5CCCCC5)cc4)cn3)cc2)C(=O)NC(C(=O)O)C(O)c2ccccc2)s1 (some centres unmarked) [Compound 936] | 0.8 to 2.5 | 
24 | CCCCCCCOc1ccc(-c2cnc(-c3ccc(C[C@H](NC(=O)c4ccc(C(C)(C)C#N)cc4)C(=O)N4CC[C@H](C(=O)O)C4)cc3)nc2)cc1 [Compound 860] | 0.8 to 2.5 | 
25 | CCCCCCOc1ccc(-c2cnc(-c3ccc(C[C@H](NC(=O)c4ccc(C(C)(C)C)s4)C(=O)NC(C(=O)O)C(O)c4ccccc4)cc3)nc2)cc1 (some centres unmarked) [Compound 943] | 0.8 to 2.5 | 

Row | Compound | EC50 [1] [µM] | EC50 [2] [µM]
26 | CCCCCCCOc1ccc(-c2cnc(-c3ccc(C[C@H](NC(=O)c4ccc(C(C)(C)C)c(OC)c4)C(=O)N4CCC[C@H]4C(=O)O)cc3)nc2)cc1 [Compound 1081] | 0.8 to 2.5 | 
27 | CCCc1ccc(-c2ccc(-c3cnc(-c4ccc(C[C@H](NC(=O)c5ccc(CC)s5)C(=O)N5CC(C(=O)O)C5)cc4)nc3)c(F)c2)cc1 [Compound 1397] |  | < 0.8
28 | CCCCCCCOc1ccc(-c2cnc(-c3ccc(C[C@H](NC(=O)c4ccc(C(C)(C)C)cc4)C(=O)N[C@@H](Cc4cnn(C)c4)C(=O)O)cc3)nc2)cc1 [Compound 576] | 0.8 to 2.5 | 
29 | CCCOc1ccc(-c2cnc(-c3ccc(C[C@H](NC(=O)c4ccc(C(C)(C)C)s4)C(=O)N4CC[C@H](C(=O)O)C4)cc3)nc2)cc1 [Compound 761] | 2.5 to 5 | 
30 | CC(C)(C)c1ccc(C(=O)N[C@@H](Cc2ccc(-c3ncc(-c4ccc(-c5ccc(C6CCCC6)cc5)cc4F)cn3)cc2)C(=O)N2CC(C(=O)O)C2)s1 [Compound 1211] |  | < 0.8
31 | CCCCCCCOc1ccc(-c2cnc(-c3ccc(C[C@H](NC(=O)c4ccc(CC)cc4)C(=O)N[C@H](C)C(=O)O)cc3)nc2)cc1 [Compound 828] | < 0.8 | 
32 | CCCCCCCOc1ccc(-c2cnc(-c3ccc(C[C@H](NC(=O)c4ccc(C5CC5)s4)C(=O)NC(C(=O)O)C(O)c4ccccc4)cc3)nc2)cc1 (some centres unmarked) [Compound 956] | 2.5 to 5 | 
33 | CCCCCCCOc1ccc(-c2nnc(-c3ccc(C[C@@H](NC(=O)c4ccc(C(C)(C)C)cc4)C(=O)N4CC(C(=O)O)C4)cc3F)s2)cc1 [Compound 1553] |  | 0.8 to 2.5
34 | CCCCCCCOc1ccc(-c2cnc(-c3ccc(C[C@H](NC(=O)c4ccc(C(C)(C)C)s4)C(=O)NC(C(=O)O)c4ccccc4C(F)(F)F)cc3)nc2)cc1 (some centres unmarked) [Compound 596] | 0.8 to 2.5 | 
35 | CCCCCCCOc1ccc(-c2cnc(-c3ccc(C[C@H](NC(=O)c4ccc(C(C)C)cc4)C(=O)NCCC(=O)O)cc3)nc2)cc1 [Compound 446] | 0.8 to 2.5 | 
36 | CCCCCCCOc1ccc(-c2cnc(-c3ccc(C[C@H](NC(=O)c4ccc(C(C)(C)C)s4)C(=O)NC(C(=O)O)C(O)c4ccc(S(C)(=O)=O)cc4)cc3)nc2)cc1 (some centres unmarked) [Compound 655] | 0.8 to 2.5 | 
37 | CCCCCCCOc1ccc(-c2cnc(-c3ccc(C[C@H](NC(=O)c4ccc(CC(C)C)cc4)C(=O)N[C@H](C)C(=O)O)cc3)nc2)cc1 [Compound 823] | 0.8 to 2.5 | 
38 | CCCCCCCOc1ccc(-c2cnc(-c3ccc(C[C@H](NC(=O)c4ccc(C(C)(C)C)s4)C(=O)NC(Cc4ccc(Cl)cc4)C(=O)O)cc3)nc2)cc1 (some centres unmarked) [Compound 615] | 5 to 10 | 
39 | CCCCCCCOc1ccc(-c2cnc(-c3ccc(C[C@H](NC(=O)c4ccc(C(C)(C)C)cc4)C(=O)NC(C(=O)O)c4cccs4)cc3)nc2)cc1 (some centres unmarked) [Compound 455] | < 0.8 | 
40 | CCCc1ccc(C2CCN(c3cnc(-c4ccc(C[C@H](NC(=O)c5ccc(C(C)(C)C)s5)C(=O)N5CC(C(=O)O)C5)cc4)nc3)CC2)cc1 [Compound 1432] |  | < 0.8
41 | C[C@@H](NC(=O)[C@H](Cc1ccc(-c2ncc(-c3cccc(C(=O)Nc4cccc(F)c4)c3)cn2)cc1)NC(=O)c1ccc(C(C)(C)C)s1)C(=O)O [Compound 1032] | 0.8 to 2.5 | 
42 | CCCCCCCOc1ccc(-c2cnc(-c3ccc(C[C@H](NC(=O)c4ccc(C5CC5)cc4)C(=O)N4CC[C@H](C(=O)O)C4)cc3)nc2)cc1 [Compound 857] | 5 to 10 | 
43 | CCCCCCCOc1ccc(-c2cnc(-c3ccc(CC(NC(=O)c4ccc(C(C)(C)C)s4)C(=O)Nc4cccc(C(=O)O)c4)cc3)nc2)cc1 (centres unmarked) [Compound 441] | 0.8 to 2.5 | 
44 | CCCCCCCOc1ccc(-c2cnc(-c3ccc(C[C@H](NC(=O)c4ccc(OCCC)cc4)C(=O)N4CC(C(=O)O)C4)cc3)nc2)cc1 [Compound 1105] | 2.5 to 5 | 
45 | CCCCCCCOc1ccc(-c2cnc(-c3ccc(C[C@H](NC(=O)c4ccc(C(C)(C)C)s4)C(=O)N[C@@H](CC(=O)O)C(=O)N4CCOCC4)cc3)nc2)cc1 [Compound 533] | < 0.8 | 
46 | CCCCCCCOc1ccc(-c2cnc(-c3ccc(C[C@H](NC(=O)c4ccc(OCC)cc4)C(=O)N[C@H](C)C(=O)O)cc3)nc2)cc1 [Compound 818] | 0.8 to 2.5 | 
47 | CCCCCC(=O)c1ccc(-c2cnc(-c3ccc(C[C@H](NC(=O)c4ccc(C(C)(C)C)cc4)C(=O)N[C@H](C)C(=O)O)cc3)nc2)cc1 [Compound 725] | 0.8 to 2.5 | 
48 | CC(C)(C)c1ccc(C(=O)NC(Cc2ccc(-c3ncc(N4CCC(C#N)(c5ccccc5)CC4)cn3)cc2)C(=O)N2CC(C(=O)O)C2)s1 (centres unmarked) [Compound 1423] |  | 0.8 to 2.5
49 | CC(C)(C)c1ccc(C(=O)N[C@@H](Cc2ccc(-c3ncc(-c4ccc(OCCC5CCCCC5)cc4)cn3)cc2)C(=O)N2CC[C@H](C(=O)O)C2)s1 [Compound 774] | 0.8 to 2.5 | 
50 | CCCc1ccc(-c2ccc(-c3cnc(-c4ccc(C[C@H](NC(=O)c5ccc(OC(C)(C)C)cc5)C(=O)N5CC(C(=O)O)C5)cc4)nc3)c(F)c2)cc1 [Compound 1403] |  | < 0.8
